The test system of data set [1] is RAW264.7. As to the kind of experiment: Cytotoxicity against mouse RAW264.7 cells assessed as effect on cell viability at 10 uM by CCK-8 assay. It counts as cell-based. Conditions: raw264.7, 10 µM.
The subject of data set [2] is RAW264.7. As to the kind of experiment: Inhibition of LPS-induced NO production in mouse RAW264.7 cells incubated for 24 hrs in presence of LPS by Griess reagent based assay. It counts as functional, cell-based. Conditions: RAW264.7, 24 h. In general terms: Nitrite, measured by Griess reagent, commonly stands in for NO production.

Usually IC50 stands for the concentration needed to halve the response being measured.

Turning to `C[C@H](Cc1ccc2c(c1)OCO2)[C@H](C)Cc1cc2c(cc1O)OCO2` (relative stereo), the Activity entry with RAW264.7 [1] is “Non-Toxic”. Besides, in the data set on RAW264.7 [2], the IC50 amounted to 41.4 µM.
For `N=C(N)NN` [PIMAGEDINE], the IC50 in the data set on RAW264.7 [2] was 25.5 µM.
On to `C/C=C/c1cc(OC)c(O[C@H](C)[C@H](OC(C)=O)c2cc(OC)c(OC)c(OC)c2)c(OC)c1`, for which, in the data set on RAW264.7 [1], the Activity result is given as “Non-Toxic”. Besides, in the data set on RAW264.7 [2], the half-inhibitory concentration (IC50) came to 16.9 µM.
As for `COC/C=C/c1cc(OC)c(O[C@@H](C)[C@@H](O)c2cc(OC)c3c(c2)OCO3)c(OC)c1`, the Activity result in the data set on RAW264.7 [1] is reported as “Non-Toxic”. For the same compound, in the data set on RAW264.7 [2], the IC50 amounted to 35.5 µM.
On to `C=CCc1cc(OC)c(O[C@@H](C)[C@@H](OC(C)=O)c2cc(OC)c3c(c2)OCO3)c(OC)c1`, for which the Activity entry in the data set with RAW264.7 [1] is recorded as “Non-Toxic”. In the data set with RAW264.7 [2], the IC50 was 23.7 µM.
The like results for `C=CCc1cc(OC)c(OC)c(OC)c1` were, in that order, “Non-Toxic” and above 50 µM.
The corresponding values for `C[C@@H]([C@H](C)[C@H](O)c1ccc2c(c1)OCO2)[C@H](O)c1ccc2c(c1)OCO2` [SAUCERNEOL I] are “Non-Toxic” and above 50 µM.
The corresponding values for `C/C=C/c1ccc(O[C@@H](C)[C@@H](O)c2ccc(O)c(OC)c2)c(OC)c1` [MACHILIN D] are “Non-Toxic” and 21.1 µM.
`C[C@H]1[C@@H]2c3cc4c(cc3O[C@]35OCOC3=CC(=O)[C@@H](C[C@@H]1C)[C@@H]25)OCO4`: the Activity result with RAW264.7 [1] is “Non-Toxic”. Also, the IC50 with RAW264.7 [2] is above 50 µM.
The like results for `CC(C(=O)c1ccc2c(c1)OCO2)[C@H](C)Cc1ccc2c(c1)OCO2` (stereo not given in full) were, in that order, “Non-Toxic” and above 50 µM.
Consider `COc1cc([C@@H]2OC(=O)O[C@H]2C)cc(OC)c1C`, for which the Activity result with RAW264.7 [1] is “Non-Toxic”. In the data set on RAW264.7 [2], the 50% inhibitory concentration (IC50) amounted to 40.1 µM.
The corresponding values for `C=CCc1cc(OC)c(O[C@H](C)[C@H](O)c2cc(OC)c(OC)c(OC)c2)c(OC)c1` are “Non-Toxic” and 46.1 µM.
As to `C[C@H](Cc1cc2c(cc1O)OCO2)[C@H](C)Cc1cc2c(cc1O)OCO2`, the Activity result in the data set with RAW264.7 [1] was “Non-Toxic”. Further, the IC50 with RAW264.7 [2] came out at 42.4 µM.
With `C[C@H]1[C@@H]2c3cc4c(cc3O[C@]35OCOC3=CC(=O)[C@@H](C[C@@H]1C)[C@H]25)OCO4`, the Activity entry in the data set on RAW264.7 [1] is “Non-Toxic”. In addition, the half-inhibitory concentration (IC50) in the data set on RAW264.7 [2] was 9.2 µM.
The like results for `C/C=C/c1cc(OC)c(O[C@@H](C)C(=O)c2cc(OC)c(OC)c(OC)c2)c(OC)c1` were, in that order, “Non-Toxic” and 14 µM.
In the case of `COC/C=C/c1ccc(O[C@@H](C)C(=O)c2cc(OC)c(OC)c(OC)c2)c(OC)c1`, in the data set with RAW264.7 [1], the Activity result was “Non-Toxic”. Moreover, in the data set with RAW264.7 [2], the IC50 was determined as 8.6 µM.
As for `CC(Cc1ccc2c(c1)OCO2)[C@H](C)Cc1ccc2c(c1)OCO2` (stereo not given in full), in the data set on RAW264.7 [1], the Activity entry was “Non-Toxic”. Also, the IC50 in the data set with RAW264.7 [2] was 16.5 µM.
The corresponding values for `COc1cc(C[C@@H](C)[C@@H](C)Cc2ccc(O)c(OC)c2)ccc1O` [MESODIHYDROGUAIARETIC ACID] are “Non-Toxic” and 20.3 µM.
For the compound `COC1=CC(=O)C2=C(C1=O)[C@@H](c1cc3c(cc1O)OCO3)[C@H](C)[C@@H](C)C2`, in the data set with RAW264.7 [1], the Activity entry is on record as “Toxic”.
Regarding `C[C@H]1[C@@H]2c3cc4c(cc3O[C@]35OCOC3=CC(=O)[C@H](C[C@@H]1C)[C@H]25)OCO4`, the Activity result in the data set on RAW264.7 [1] is “Non-Toxic”. The IC50 with RAW264.7 [2] is 5.6 µM.
The corresponding values for `C=CCc1cc(OC)c(O[C@H](C)[C@H](OC(C)=O)c2cc(OC)c(OC)c(OC)c2)c(OC)c1` are “Non-Toxic” and 10.4 µM.

The values above are taken from ChEMBL document CHEMBL4334515, “Lignans from Saururus chinensis with Inhibitory Effects on Nitric Oxide Production” (J Nat Prod, 2019).
